Experimental data published in the CheMixHub drug solubility set.

Assay: xn = mol fraction of the nth substance listed, in the solute-free solvent

Cc1c(Br)c(=O)n(C2CCCC2)c2nc(Cl)ncc12 + C1CCOC1 + CCO
solubility (g/100 g solution)
Conditions | 278.15 K | 283.15 K | 288.15 K | 293.15 K | 298.15 K | 303.15 K | 308.15 K | 313.15 K | 318.15 K | 323.15 K
x2 = 0.1 | 0.59 | 0.723 | 0.88 | 1.07 | 1.28 | 1.53 | 1.82 | 2.14 | 2.52 | 2.94
x2 = 0.2 | 1.06 | 1.25 | 1.51 | 1.81 | 2.16 | 2.56 | 3.01 | 3.52 | 4.1 | 4.74
x2 = 0.3 | 1.49 | 1.8 | 2.16 | 2.58 | 3.05 | 3.6 | 4.21 | 4.9 | 5.66 | 6.51
x2 = 0.4 | 1.9 | 2.29 | 2.74 | 3.26 | 3.84 | 4.51 | 5.26 | 6.1 | 7.04 | 8.07
x2 = 0.5 | 2.25 | 2.71 | 3.34 | 3.83 | 4.52 | 5.29 | 6.16 | 7.13 | 8.2 | 9.38
x2 = 0.6 | 2.56 | 3.07 | 3.67 | 4.35 | 5.12 | 5.99 | 6.96 | 8.04 | 9.23 | 10.5
x2 = 0.7 | 2.85 | 3.42 | 4.08 | 4.83 | 5.68 | 6.64 | 7.71 | 8.9 | 10.2 | 11.7
x2 = 0.8 | 3.12 | 3.75 | 4.47 | 5.29 | 6.22 | 7.27 | 8.44 | 9.73 | 11.2 | 12.7
x2 = 0.9 | 3.34 | 4.01 | 4.79 | 5.67 | 6.67 | 7.79 | 9.04 | 10.4 | 11.9 | 13.6

Cc1c(Br)c(=O)n(C2CCCC2)c2nc(Cl)ncc12 + CC1=CC(=O)CC(C)(C)C1 + CC(C)O
solubility (g/100 g solution)
Conditions | 278.15 K | 283.15 K | 288.15 K | 293.15 K | 298.15 K | 303.15 K | 308.15 K | 313.15 K | 318.15 K | 323.15 K
x2 = 0.1 | 0.104 | 0.147 | 0.203 | 0.285 | 0.388 | 0.522 | 0.702 | 0.929 | 1.27 | 1.59
x2 = 0.2 | 0.167 | 0.234 | 0.327 | 0.45 | 0.61 | 0.819 | 1.09 | 1.43 | 1.87 | 2.42
x2 = 0.3 | 0.232 | 0.325 | 0.45 | 0.614 | 0.828 | 1.11 | 1.47 | 1.92 | 2.49 | 3.21
x2 = 0.4 | 0.288 | 0.401 | 0.554 | 0.752 | 1.02 | 1.35 | 1.79 | 2.33 | 3.02 | 3.87
x2 = 0.5 | 0.332 | 0.458 | 0.633 | 0.862 | 1.16 | 1.54 | 2.03 | 2.65 | 3.43 | 4.39
x2 = 0.6 | 0.364 | 0.506 | 0.697 | 0.947 | 1.27 | 1.69 | 2.23 | 2.9 | 3.75 | 4.8
x2 = 0.7 | 0.391 | 0.543 | 0.746 | 1.01 | 1.37 | 1.82 | 2.39 | 3.12 | 4.02 | 5.14
x2 = 0.8 | 0.416 | 0.579 | 0.796 | 1.08 | 1.45 | 1.93 | 2.54 | 3.32 | 4.28 | 5.48
x2 = 0.9 | 0.441 | 0.613 | 0.844 | 1.15 | 1.54 | 2.05 | 2.7 | 3.52 | 4.55 | 5.82

CCOc1ccccc1C(N)=O + CC#N + CC(C)O
solubility (g/100 g solution)
Conditions | x2 = 0.1 | x2 = 0.2 | x2 = 0.3 | x2 = 0.4 | x2 = 0.5 | x2 = 0.6 | x2 = 0.7 | x2 = 0.8 | x2 = 0.9
298.15 K | 4.36 | 5.28 | 6.05 | 6.41 | 6.8 | 6.66 | 6.22 | 5.59 | 4.71
303.15 K | 5.5 | 6.58 | 7.52 | 8.13 | 8.55 | 8.45 | 7.99 | 7.3 | 6.12
308.15 K | 6.49 | 7.95 | 9.11 | 10.1 | 10.4 | 10.5 | 10.1 | 9.2 | 7.99
313.15 K | 8.08 | 9.85 | 11.3 | 12.4 | 13 | 13 | 12.6 | 11.7 | 9.97
318.15 K | 10.2 | 12.3 | 14.1 | 15.4 | 16.1 | 16.2 | 15.6 | 14.4 | 12.6
323.15 K | 13 | 15.5 | 17.7 | 19.2 | 20.1 | 20.3 | 19.6 | 18.3 | 16.1

CCOc1ccccc1C(N)=O + CC#N + CCO
323.15 K
Conditions | solubility (g/100 g solution)
x2 = 0.1 | 17.4
x2 = 0.2 | 19.8
x2 = 0.3 | 21.8
x2 = 0.4 | 23.3
x2 = 0.5 | 23.9
x2 = 0.6 | 23.3
x2 = 0.7 | 21.7
x2 = 0.8 | 19.3
x2 = 0.9 | 16.4
